This test deals with T cells and NK cells. In words: Internalization of LDH-A488 by T cells and NK cells of human PBMC. Format: cell-based. To be noted: 10 ug/mL LDH-A488, 30 min, 37° C., IL-2 cultured PBMC. On the procedure:
FIG. 33. Human PBMC were isolated from healthy human blood via Ficoll gradient. PBMC were cultured for 24 h in RPMI+10% FBS supplemented with 1000 U/mL IL-2. Experimental wells were pulsed with 10 ug/mL LDH-A488 for 30 min (control wells received no LDH) at 37° C. Cells were treated for 2 min with 0.5M acetic acid+150 mM NaCl (pH 2.5), followed by 4 subsequent washes in RPMI+10% FBS. Cells were stained with antibodies directed against CD4, CD8, CD28, and CD95 to delineate T cell subsets (CD28+CD95−, Naïve, Na; CD28+CD95+, central memory, CM; CD28−CD95+, effector memory, EM) or against CD3, CD56, and CD16 to delineate NK cell subsets (CD3-CD56hiCD16−; CD3−CD56dimCD16−; CD3−CD56dimCD16+). Frequency and MFI of A488 was corrected against control (no LDH pulse). Shown are 10 data points: 2 patients on 2 different days (in duplicate), and 1 patient on one day in duplicate.
Human PBMC were isolated from healthy human blood via Ficoll gradient. PBMC were cultured for 24 h in RPMI+10% FBS supplemented with 1000 U/mL IL-2. Experimental wells were pulsed with 10 ug/mL LDH-A488 for 30 min (control wells received no LDH) at 37° C. Cells were treated for 2 min with 0.5M acetic acid+150 mM NaCl (pH 2.5), followed by 4 subsequent washes in RPMI+10% FBS. […]

On to “LDH5: purified native lactate dehydrogenase isoenzyme 5, alpha only tetramer; fluorescently labeled in uptake tests”, for which the “Internalization of LDH5 by T cells and NK cells” value was “internalize”.

(Values after patent publication US20170029531A1, “INHIBITION OF LACTATE DEHYDROGENASE 5 (LDH-5) BINDING, INCORPORATION, INTERNALIZATION AND/OR ENDOCYTOSIS TO IMMUNE CELLS” (Seattle Children's Hospital (dba Seattle Children's …, priority 2014, published 2017).)
